Experimental data published in PubChem BioAssay (NCI).
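The concentration for 50% growth inhibition is given as GI50. TGI marks complete inhibition of growth.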

What was measured:
Assay in all cases: DTP human tumour cell line panel, 384-well format
A549 NSCLC = test system: A549 NSCLC
A498 renal = test system: A498 renal
EKVX NSCLC = test system: EKVX NSCLC
SN12C renal = test system: SN12C renal
OVCAR-4 ovarian = test system: OVCAR-4 ovarian
HL-60(TB) leukemia = test system: HL-60(TB) leukemia
U251 glioblastoma = test system: U251 glioblastoma
COLO 205 colon = test system: COLO 205 colon
UACC-62 melanoma = test system: UACC-62 melanoma
MDA-MB-468 breast = test system: MDA-MB-468 breast
MOLT-4 leukemia = test system: MOLT-4 leukemia
OVCAR-8 ovarian = test system: OVCAR-8 ovarian
NCI-H522 lung = test system: NCI-H522 lung
BT-549 breast = test system: BT-549 breast
K-562 leukemia = test system: K-562 leukemia
IGROV1 ovarian = test system: IGROV1 ovarian
NCI-H460 NSCLC = test system: NCI-H460 NSCLC
NCI/ADR-RES ovarian = test system: NCI/ADR-RES ovarian
SK-OV-3 ovarian = test system: SK-OV-3 ovarian
HOP-92 NSCLC = test system: HOP-92 NSCLC
PC-3 prostate = test system: PC-3 prostate
TK-10 renal = test system: TK-10 renal
MCF7 breast = test system: MCF7 breast
MDA-MB-231 breast = test system: MDA-MB-231 breast
UO-31 renal = test system: UO-31 renal
MDA-MB-435 melanoma = test system: MDA-MB-435 melanoma
OVCAR-5 ovarian = test system: OVCAR-5 ovarian
SF-268 CNS = test system: SF-268 CNS
M14 melanoma = test system: M14 melanoma
CCRF-CEM leukemia = test system: CCRF-CEM leukemia
RPMI-8226 leukemia = test system: RPMI-8226 leukemia
HCT-15 colon = test system: HCT-15 colon
DU-145 prostate = test system: DU-145 prostate
NCI-H23 lung = test system: NCI-H23 lung
SF-539 CNS = test system: SF-539 CNS
NCI-H226 lung = test system: NCI-H226 lung
786-0 renal = test system: 786-0 renal
HCC-2998 colon = test system: HCC-2998 colon
SNB-19 CNS = test system: SNB-19 CNS
HOP-62 NSCLC = test system: HOP-62 NSCLC
SF-295 CNS = test system: SF-295 CNS
T-47D breast = test system: T-47D breast
SK-MEL-28 melanoma = test system: SK-MEL-28 melanoma
SK-MEL-5 melanoma = test system: SK-MEL-5 melanoma
NCI-H322M lung = test system: NCI-H322M lung
SNB-75 CNS = test system: SNB-75 CNS
SW-620 colon = test system: SW-620 colon
MALME-3M melanoma = test system: MALME-3M melanoma
OVCAR-3 ovarian = test system: OVCAR-3 ovarian
LOX IMVI melanoma = test system: LOX IMVI melanoma
HS 578T breast = test system: HS 578T breast
RXF 393 renal = test system: RXF 393 renal
UACC-257 melanoma = test system: UACC-257 melanoma
ACHN renal = test system: ACHN renal
HT29 colon = test system: HT29 colon
KM12 colon = test system: KM12 colon
CAKI-1 renal = test system: CAKI-1 renal
HCT-116 colon = test system: HCT-116 colon

In the case of `COC[C@H](NC(=O)c1cnc(C)s1)C(=O)N[C@@H](COC)C(=O)N[C@@H](Cc1ccccc1)C(=O)[C@@]1(C)CO1`, the GI50 (A549 NSCLC) is reported as < 0.01 µM, the TGI (A549 NSCLC) is reported as 0.256 µM and the GI50 (A498 renal) is reported as < 0.01 µM. The TGI (A498 renal) was 0.0103 µM, the GI50 (EKVX NSCLC) was 0.0144 µM and the TGI (EKVX NSCLC) was 0.0773 µM. For the same molecule, the GI50 (SN12C renal) was 0.0107 µM, the TGI (SN12C renal) was 0.0303 µM and the GI50 (OVCAR-4 ovarian) was 0.0123 µM. For the same molecule, the TGI (OVCAR-4 ovarian) was 0.0298 µM, the GI50 (HL-60(TB) leukemia) was 0.0107 µM and the TGI (HL-60(TB) leukemia) was 0.023 µM. The GI50 (U251 glioblastoma) was 0.0102 µM, the TGI (U251 glioblastoma) was 0.0256 µM and the GI50 (COLO 205 colon) was < 0.01 µM. For the same molecule, the TGI (COLO 205 colon) was 1.53 µM, the GI50 (UACC-62 melanoma) was < 0.01 µM and the TGI (UACC-62 melanoma) was < 0.01 µM. The GI50 (MDA-MB-468 breast) was < 0.01 µM, the TGI (MDA-MB-468 breast) was < 0.01 µM and the GI50 (MOLT-4 leukemia) was < 0.01 µM. For the same molecule, the TGI (MOLT-4 leukemia) was < 0.01 µM, the GI50 (OVCAR-8 ovarian) was < 0.01 µM and the TGI (OVCAR-8 ovarian) was 0.0622 µM. For the same molecule, the GI50 (NCI-H522 lung) was < 0.01 µM, the TGI (NCI-H522 lung) was < 0.01 µM and the GI50 (BT-549 breast) was < 0.01 µM. The TGI (BT-549 breast) was < 0.01 µM, the GI50 (K-562 leukemia) was 0.011 µM and the TGI (K-562 leukemia) was 0.0354 µM. It also gave a GI50 (IGROV1 ovarian) of 0.015 µM, a TGI (IGROV1 ovarian) of 0.0512 µM and a GI50 (NCI-H460 NSCLC) of 0.0231 µM. The TGI (NCI-H460 NSCLC) was 0.0996 µM, the GI50 (NCI/ADR-RES ovarian) was 1.29 µM and the TGI (NCI/ADR-RES ovarian) was 2.91 µM. For the same molecule, the GI50 (SK-OV-3 ovarian) was < 0.01 µM, the TGI (SK-OV-3 ovarian) was 0.023 µM and the GI50 (HOP-92 NSCLC) was < 0.01 µM. The TGI (HOP-92 NSCLC) was < 0.01 µM, the GI50 (PC-3 prostate) was 0.0105 µM and the TGI (PC-3 prostate) was 0.024 µM. For the same molecule, the GI50 (TK-10 renal) was < 0.01 µM, the TGI (TK-10 renal) was 0.0225 µM and the GI50 (MCF7 breast) was < 0.01 µM. For the same molecule, the TGI (MCF7 breast) was 0.325 µM, the GI50 (MDA-MB-231 breast) was < 0.01 µM and the TGI (MDA-MB-231 breast) was < 0.01 µM. The GI50 (UO-31 renal) was 0.0172 µM, the TGI (UO-31 renal) was 0.033 µM and the GI50 (MDA-MB-435 melanoma) was < 0.01 µM. For the same molecule, the TGI (MDA-MB-435 melanoma) was < 0.01 µM, the GI50 (OVCAR-5 ovarian) was < 0.01 µM and the TGI (OVCAR-5 ovarian) was 0.0812 µM. For the same molecule, the GI50 (SF-268 CNS) was < 0.01 µM, the TGI (SF-268 CNS) was < 0.01 µM and the GI50 (M14 melanoma) was < 0.01 µM. For the same molecule, the TGI (M14 melanoma) was < 0.01 µM, the GI50 (CCRF-CEM leukemia) was < 0.01 µM and the TGI (CCRF-CEM leukemia) was < 0.01 µM. The GI50 (RPMI-8226 leukemia) was < 0.01 µM, the TGI (RPMI-8226 leukemia) was < 0.01 µM and the GI50 (HCT-15 colon) was 0.0368 µM. The TGI (HCT-15 colon) was 0.154 µM, the GI50 (DU-145 prostate) was < 0.01 µM and the TGI (DU-145 prostate) was 0.223 µM. The GI50 (NCI-H23 lung) was < 0.01 µM, the TGI (NCI-H23 lung) was < 0.01 µM and the GI50 (SF-539 CNS) was < 0.01 µM. The TGI (SF-539 CNS) was < 0.01 µM, the GI50 (NCI-H226 lung) was < 0.01 µM and the TGI (NCI-H226 lung) was < 0.01 µM. For the same molecule, the GI50 ([…]-0 renal) was < 0.01 µM, the TGI (786-0 renal) was 0.127 µM and the GI50 (HCC-2998 colon) was < 0.01 µM. The TGI (HCC-2998 colon) was 0.0112 µM, the GI50 (SNB-19 CNS) was < 0.01 µM and the TGI (SNB-19 CNS) was 0.0164 µM. The GI50 (HOP-62 NSCLC) was < 0.01 µM, the TGI (HOP-62 NSCLC) was < 0.01 µM and the GI50 (SF-295 CNS) was < 0.01 µM. The TGI (SF-295 CNS) was < 0.01 µM, the GI50 (T-47D breast) was < 0.01 µM and the TGI (T-47D breast) was < 0.01 µM. The GI50 (SK-MEL-28 melanoma) was < 0.01 µM, the TGI (SK-MEL-28 melanoma) was 0.0128 µM and the GI50 (SK-MEL-5 melanoma) was < 0.01 µM. For the same molecule, the TGI (SK-MEL-5 melanoma) was < 0.01 µM, the GI50 (NCI-H322M lung) was < 0.01 µM and the TGI (NCI-H322M lung) was 0.236 µM. For the same molecule, the GI50 (SNB-75 CNS) was < 0.01 µM, the TGI (SNB-75 CNS) was < 0.01 µM and the GI50 (SW-620 colon) was < 0.01 µM. For the same molecule, the TGI (SW-620 colon) was < 0.01 µM, the GI50 (MALME-3M melanoma) was < 0.01 µM and the TGI (MALME-3M melanoma) was < 0.01 µM. The GI50 (OVCAR-3 ovarian) was < 0.01 µM, the TGI (OVCAR-3 ovarian) was < 0.01 µM and the GI50 (LOX IMVI melanoma) was < 0.01 µM. For the same molecule, the TGI (LOX IMVI melanoma) was 0.012 µM, the GI50 (HS 578T breast) was < 0.01 µM and the TGI (HS 578T breast) was < 0.01 µM. The GI50 (RXF 393 renal) was < 0.01 µM, the TGI (RXF 393 renal) was < 0.01 µM and the GI50 (UACC-257 melanoma) was < 0.01 µM. The TGI (UACC-257 melanoma) was 0.0117 µM, the GI50 (ACHN renal) was < 0.01 µM and the TGI (ACHN renal) was 0.156 µM. The GI50 (HT29 colon) was < 0.01 µM, the TGI (HT29 colon) was < 0.01 µM and the GI50 (KM12 colon) was < 0.01 µM. The TGI (KM12 colon) was < 0.01 µM, the GI50 (CAKI-1 renal) was < 0.01 µM and the TGI (CAKI-1 renal) was 1.79 µM. The GI50 (HCT-116 colon) was < 0.01 µM and the TGI (HCT-116 colon) was < 0.01 µM.
